Peptide text beside a SMILES is read from it. * marks the point of attachment. Cbz = O=C(OCc1ccccc1)*

2 molecules from US20050019847A1, “ISG15-conjugated proteins” (priority 2003, published 2005) can be followed below.

One assay relates to ISG15-conjugates. Nature of the assay: Western blot of ISG15-conjugates in MEFs treated with proteasome inhibitor. The format is cell-based, murine. The protocol:
(§1) (A) UBP43^+/+ and UBP43^−/− MEFs were incubated with or without IFNβ for 18 hours and were treated with lactacystin at a final concentration of 5 μM for 3 hours. An equal volume of DMSO (vehicle) was added to control samples. Cell lysates (10 μg total protein) were resolved on 8-18% minigel and western blot was performed with rabbit anti-mouse ISG15. The membrane was stripped and reprobed with anti-Ub serum. (B) UBP43^+/+ (not treated with IFN) and UBP43^−/− (incubated with IFNβ for 18 hours) MEFs were treated with MG132 at a final concentration of 10 μM for 3 hours. An equal volume of DMSO (vehicle) was added to control samples. PLCγ1 was immunoprecipitated and immunocomplexes were resolved on 7% minigel. The membrane was probed with anti-ISG15 and, after stripping, was reprobed with anti-PLCγ1. Positions of unmodified PLCγ1 are shown with arrows and positions of conjugates are shown with asterisks. Cell lysates (10 μg total protein) were also resolved on an identical minigel to assess amount of ISG15- and Ub-conjugates. Western blot was performed with rabbit anti-mouse ISG15 and after stripping the membrane was reprobed with anti-Ub serum.
(§2) Wild type and UBP43^−/− murine embryonic fibroblasts (MEFs) were generated from a litter of embryos on embryonic day 12.5. Briefly, embryonic torsos were minced and trypsinized for 30 min at 37° C. […]

The next assay relates to ubiquitinated proteins. Nature of the assay: Western blot of ubiquitinated proteins in MEFs treated with proteasome inhibitor. The class given is cell-based, murine. As to conditions: UBP43−/− and UBP43+/+ MEFs, uninduced or IFNβ induced; lactacystin 5 μM for 3 hours. On the procedure:
as §1, §2

Regarding `CC(C)C[C@@H](C=O)NC(=O)[C@H](CC(C)C)NC(=O)[C@H](CC(C)C)NC(=O)OCc1ccccc1` [MG132] (Cbz-Leu-Leu-Leu-aldehyde), the “level of ISG15-conjugation” value in the assay on ISG15-conjugates (UBP43+/+ (no IFN) and UBP43−/− (IFNβ 18 hours) MEFs, MG132 10 μM for 3 hours) is “do not affect”.

On to `CC(=O)N[C@@H](CSC(=O)[C@]1([C@@H](O)C(C)C)NC(=O)[C@H](C)[C@@H]1O)C(=O)O` [lactacystin], for which the “amount of ISG15-conjugates, treated vs untreated samples” value in the assay on ISG15-conjugates (UBP43−/− and UBP43+/+ MEFs, uninduced or IFNβ induced, lactacystin 5 μM for 3 hours) was “no difference”. Further, in the assay with ubiquitinated proteins, the “amount of ubiquitinated proteins” value is reported as “increase”.
